Experimental data as given in paper PMC10643470, “Knockout or inhibition of USP30 protects dopaminergic neurons in a Parkinson’s disease mouse model” (Nature Communications, 2023).
Values joined by “and” are separate entries in the source; they are usually repeats but may differ in a detail not shown here. Equal values may be shown once.

Tests used:
USP32 = USP32 (Homo sapiens, UniProt Q8NFA0); experiment: DUB/cathepsin selectivity biochemical assay
[1] = test system: AAV-A53T-SNCA PD mouse model; experiment: TH+ neuron counting in SNpc, AAV-A53T-SNCA mouse model (compound study); format: in vivo
Source text: (§1) For the compound study, the fixed, cryoprotected and frozen midbrain samples were sectioned as coronal sections at 100 µm intervals through SNpc and ventral tegmental area (VTA) and mounted on glass slides. Sectioning was started at −2.6 mm from bregma and continued to −3.7 mm from bregma in the AP axis (coordinates based on Franklin & Paxinos: The Mouse Brain in Stereotaxic Coordinates). For the immunostaining, the sections were stained with anti-TH following permeabilization. The stained sections were scanned with the Olympus VS120 slide scanner and analyzed with a VIS-Visiopharm Integrator System (Visiopharm, Denmark) by a blinded data analyst. All cells of interest with visible nuclei were labeled manually and counted using an APP (Analysis Protocol Package), scaled by section thickness and sectioning interval to estimate the total cell population in the SNpc. For immunostaining of Ser129 αSyn phosphorylation, TSA amplification was used with primary antibody ab51253 (Abcam). Blinded analysis was used, and positive cells per area were determined. For dual IF IHC of Iba1 (WAKO) and GFAP (ab4674 – Abcam), the stained sections were scanned and analyzed by a blinded data analyst. Analysis determines the percentage of positive staining area [%area = (stained area/region area) * (100)]. To calculate % of stained area, the same threshold value was applied to all sections with the same antibody staining. All pixels above the threshold value were considered positive. All striatal densitometry and neuronal counting data for both KO and inhibitor studies were obtained by an investigator blinded to genotype and treatment.

Trabid = Trabid (Homo sapiens, UniProt Q9UGI0); experiment: DUB/cathepsin selectivity biochemical assay
Sequence of Trabid (Q9UGI0 whole entry, species assumed): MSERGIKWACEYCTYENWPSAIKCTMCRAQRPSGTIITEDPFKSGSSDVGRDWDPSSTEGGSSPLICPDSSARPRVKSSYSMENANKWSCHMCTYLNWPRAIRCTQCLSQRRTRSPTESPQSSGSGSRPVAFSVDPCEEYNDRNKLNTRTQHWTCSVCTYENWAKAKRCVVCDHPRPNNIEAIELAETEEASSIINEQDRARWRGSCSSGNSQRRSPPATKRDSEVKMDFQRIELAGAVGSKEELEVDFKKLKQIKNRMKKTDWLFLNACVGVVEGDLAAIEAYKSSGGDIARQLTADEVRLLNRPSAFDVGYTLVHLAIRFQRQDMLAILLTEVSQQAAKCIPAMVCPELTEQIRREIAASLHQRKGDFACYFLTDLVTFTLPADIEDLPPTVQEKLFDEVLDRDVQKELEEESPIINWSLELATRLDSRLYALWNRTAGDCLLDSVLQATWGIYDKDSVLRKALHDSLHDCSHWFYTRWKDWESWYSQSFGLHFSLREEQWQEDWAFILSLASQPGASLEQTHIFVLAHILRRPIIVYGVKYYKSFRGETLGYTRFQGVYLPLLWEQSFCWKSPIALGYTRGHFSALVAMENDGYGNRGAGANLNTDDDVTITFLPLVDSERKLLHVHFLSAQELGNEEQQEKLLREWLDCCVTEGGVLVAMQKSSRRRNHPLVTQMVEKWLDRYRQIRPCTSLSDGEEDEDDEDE

VCPIP FL = target: T1, VCPIP FL (Homo sapiens, UniProt Q96JH7); experiment: DUB/cathepsin selectivity biochemical assay
T1 construct: VCPIP FL

USP13 = USP13 (Homo sapiens, UniProt Q92995); experiment: DUB/cathepsin selectivity biochemical assay
OTUD6A = OTUD6A (Homo sapiens, UniProt Q7L8S5); experiment: DUB/cathepsin selectivity biochemical assay
Sequence of OTUD6A (Q7L8S5 whole entry, species assumed): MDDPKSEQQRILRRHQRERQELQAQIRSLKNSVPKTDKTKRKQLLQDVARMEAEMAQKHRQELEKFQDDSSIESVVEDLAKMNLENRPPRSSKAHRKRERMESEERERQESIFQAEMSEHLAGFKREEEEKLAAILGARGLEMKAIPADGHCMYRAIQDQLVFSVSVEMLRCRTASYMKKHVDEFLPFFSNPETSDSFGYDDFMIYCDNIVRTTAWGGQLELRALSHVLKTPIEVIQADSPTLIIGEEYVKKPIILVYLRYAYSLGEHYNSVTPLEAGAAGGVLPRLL

USP8 = USP8 (Homo sapiens, UniProt P40818); experiment: DUB/cathepsin selectivity biochemical assay
USP6 = USP6 (Homo sapiens, UniProt P35125); experiment: DUB/cathepsin selectivity biochemical assay
UchL5 = UchL5 (Homo sapiens, UniProt Q9Y5K5); experiment: DUB/cathepsin selectivity biochemical assay
Sequence of UchL5 (Q9Y5K5 whole entry, species assumed): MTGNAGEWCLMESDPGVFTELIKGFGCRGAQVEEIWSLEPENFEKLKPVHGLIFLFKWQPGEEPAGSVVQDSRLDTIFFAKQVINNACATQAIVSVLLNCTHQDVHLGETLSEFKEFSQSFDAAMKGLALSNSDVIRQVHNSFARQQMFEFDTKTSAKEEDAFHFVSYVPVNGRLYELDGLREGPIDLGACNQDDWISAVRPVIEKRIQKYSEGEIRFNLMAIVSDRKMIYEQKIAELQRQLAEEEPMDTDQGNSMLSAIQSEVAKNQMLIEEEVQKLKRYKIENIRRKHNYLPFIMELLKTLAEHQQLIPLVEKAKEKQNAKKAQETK

USP24 = USP24 (Homo sapiens, UniProt Q9UPU5); experiment: DUB/cathepsin selectivity biochemical assay
SENP6 = SENP6 (Homo sapiens, UniProt Q9GZR1); experiment: DUB/cathepsin selectivity biochemical assay
[2] = Mouse pharmacokinetics (IV clearance, oral bioavailability); format: in vivo; conditions: blood
[3] = test system: AAV-A53T-SNCA PD mouse model; experiment: Iba1/GFAP immunostaining in SNpc, AAV-A53T-SNCA mouse model (compound study); format: in vivo; set-up: key to Figure S7a immunostaining, Left / Figure S7a immunostaining, Right: % stained area = stained area / region area × 100
Source text: as §1

USP35 = USP35 (Homo sapiens, UniProt Q9P2H5); experiment: DUB/cathepsin selectivity biochemical assay
Sequence of USP35 (Q9P2H5 whole entry, species assumed): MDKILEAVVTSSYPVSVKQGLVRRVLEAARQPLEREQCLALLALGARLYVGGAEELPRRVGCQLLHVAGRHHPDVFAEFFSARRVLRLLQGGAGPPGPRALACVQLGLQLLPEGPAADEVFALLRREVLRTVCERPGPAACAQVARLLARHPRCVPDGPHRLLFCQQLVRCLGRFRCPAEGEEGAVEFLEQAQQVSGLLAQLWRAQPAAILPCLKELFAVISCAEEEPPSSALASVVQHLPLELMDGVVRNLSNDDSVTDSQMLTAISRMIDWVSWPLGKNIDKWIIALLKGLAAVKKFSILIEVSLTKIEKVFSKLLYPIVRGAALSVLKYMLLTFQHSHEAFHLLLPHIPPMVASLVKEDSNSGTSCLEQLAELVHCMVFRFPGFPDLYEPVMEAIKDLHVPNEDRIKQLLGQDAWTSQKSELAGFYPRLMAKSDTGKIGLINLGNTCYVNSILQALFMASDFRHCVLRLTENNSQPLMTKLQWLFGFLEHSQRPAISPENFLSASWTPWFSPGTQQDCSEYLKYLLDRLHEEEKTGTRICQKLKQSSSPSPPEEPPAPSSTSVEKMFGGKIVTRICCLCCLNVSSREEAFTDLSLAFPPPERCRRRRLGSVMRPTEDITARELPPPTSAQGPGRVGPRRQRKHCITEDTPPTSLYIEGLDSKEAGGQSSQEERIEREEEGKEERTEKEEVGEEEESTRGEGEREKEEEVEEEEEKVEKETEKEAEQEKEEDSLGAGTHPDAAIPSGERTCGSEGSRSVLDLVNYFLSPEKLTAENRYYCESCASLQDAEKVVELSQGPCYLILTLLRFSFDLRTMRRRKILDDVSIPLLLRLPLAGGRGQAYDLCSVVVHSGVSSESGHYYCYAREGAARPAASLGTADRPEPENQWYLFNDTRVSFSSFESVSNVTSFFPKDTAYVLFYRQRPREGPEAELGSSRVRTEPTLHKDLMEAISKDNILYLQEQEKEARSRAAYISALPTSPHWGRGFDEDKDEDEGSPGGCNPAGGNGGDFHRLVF

CYLD = CYLD (Homo sapiens, UniProt Q9NQC7); experiment: DUB/cathepsin selectivity biochemical assay
OTUB2 = OTUB2 (Homo sapiens, UniProt Q96DC9); experiment: DUB/cathepsin selectivity biochemical assay
[4] = test system: TOM20-ubiquitylation in control (AHN) iPSC-derived dopaminergic neurons; experiment: TOM20-ubiquitylation in control iPSC-derived dopaminergic neurons; format: cell-based, human; conditions: no exogenous stimuli
Source text: Donor-derived DopaNeuron lines were generated from source material provided by the Parkinson’s Progression Markers Initiative (PPMI) through The Michael J. Fox Foundation. Human iPS cells-derived DopaNeurons were purchased from Fujifilm/Cellular Dynamics. Apparently healthy normal (AHN) (catalog # R1088) or alpha-synuclein A53T mutated (A53T) (catalog # R1109) iPSC-derived dopaminergic neurons (dopaneurons) were thawed from liquid nitrogen. 400 000 viable (counted using a cell counter) dopaneurons […] were plated per well into 24 well plates on day 0 in complete maintenance medium (CMM).
A half-medium change was performed on the cells on Day 3 with CMM. On Day 5 cells were half-medium changed with complete brainphys medium. […] Cells were given half medium changes with or without compounds (depending on whether treatments with compound had started) every 2-3 days.

mouse USP30 = target: T2, mouse USP30 (Mus musculus, UniProt Q3UN04); experiment: USP30 biochemical fluorescence polarization assay (mouse); conditions: read-out: Mouse USP30 FP assay (IC50)
T2 construct: Mouse USP30(57-517) (Boston Biochem, #E-582M); purchased Boston Biochem E-582M
Experimental: USP30 enzyme was diluted in reaction buffer (40 mM Tris HCl, pH 7.5, 0.005% Tween 20, 0.5 mg/ml BSA, 5 mM BME) to achieve a final concentration of 8 nM for human USP30 and 10 nM for mouse USP30, the compound was added and incubated for 30 min at room temp then reactions initiated by addition of Ub-Lys-TAMRA (final conc of 50 nM). Fluorescence was measured immediately after the addition of substrate and following a 2 h incubation on Pherastar Plus or FSX with λ Excitation 540 nm and λ Emission 590 nm.

MINDY2 = MINDY2 (Homo sapiens, UniProt Q8NBR6); experiment: DUB/cathepsin selectivity biochemical assay
USP20 = USP20 (Homo sapiens, UniProt Q9Y2K6); experiment: DUB/cathepsin selectivity biochemical assay
USPL1 = USPL1 (Homo sapiens, UniProt Q5W0Q7); experiment: DUB/cathepsin selectivity biochemical assay
Sequence of USPL1 (Q5W0Q7 whole entry, species assumed): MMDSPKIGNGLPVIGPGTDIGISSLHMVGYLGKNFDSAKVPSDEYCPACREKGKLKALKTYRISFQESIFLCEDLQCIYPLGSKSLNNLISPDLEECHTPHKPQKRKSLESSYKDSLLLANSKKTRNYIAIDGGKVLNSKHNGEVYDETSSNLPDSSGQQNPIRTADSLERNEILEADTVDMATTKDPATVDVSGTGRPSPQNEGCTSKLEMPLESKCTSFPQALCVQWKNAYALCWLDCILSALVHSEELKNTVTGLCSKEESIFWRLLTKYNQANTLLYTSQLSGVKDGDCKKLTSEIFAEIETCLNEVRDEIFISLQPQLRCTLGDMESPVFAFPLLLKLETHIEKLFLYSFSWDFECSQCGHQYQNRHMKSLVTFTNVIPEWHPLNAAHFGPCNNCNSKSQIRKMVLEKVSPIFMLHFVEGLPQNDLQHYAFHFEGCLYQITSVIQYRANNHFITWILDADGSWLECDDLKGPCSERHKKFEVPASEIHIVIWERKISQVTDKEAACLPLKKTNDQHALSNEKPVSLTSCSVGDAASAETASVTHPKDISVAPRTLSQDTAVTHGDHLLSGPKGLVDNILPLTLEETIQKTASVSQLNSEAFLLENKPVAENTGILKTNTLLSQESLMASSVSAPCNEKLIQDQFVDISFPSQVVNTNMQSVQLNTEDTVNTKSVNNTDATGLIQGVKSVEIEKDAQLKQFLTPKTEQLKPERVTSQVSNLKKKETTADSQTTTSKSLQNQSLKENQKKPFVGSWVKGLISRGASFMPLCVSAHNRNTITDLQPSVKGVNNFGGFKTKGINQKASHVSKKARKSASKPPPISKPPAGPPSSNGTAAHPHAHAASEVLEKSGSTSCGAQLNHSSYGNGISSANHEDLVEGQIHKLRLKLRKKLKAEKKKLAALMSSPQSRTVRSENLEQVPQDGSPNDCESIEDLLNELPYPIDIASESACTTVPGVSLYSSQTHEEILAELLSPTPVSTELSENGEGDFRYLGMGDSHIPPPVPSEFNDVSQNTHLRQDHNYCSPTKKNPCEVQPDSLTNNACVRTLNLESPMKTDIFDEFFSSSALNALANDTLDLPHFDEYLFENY

USP9x = USP9x (Homo sapiens, UniProt Q93008); experiment: DUB/cathepsin selectivity biochemical assay
ATXN3L = ATXN3L (Homo sapiens, UniProt Q9H3M9); experiment: DUB/cathepsin selectivity biochemical assay

Sequence of USP32 (Q8NFA0 whole entry, species assumed): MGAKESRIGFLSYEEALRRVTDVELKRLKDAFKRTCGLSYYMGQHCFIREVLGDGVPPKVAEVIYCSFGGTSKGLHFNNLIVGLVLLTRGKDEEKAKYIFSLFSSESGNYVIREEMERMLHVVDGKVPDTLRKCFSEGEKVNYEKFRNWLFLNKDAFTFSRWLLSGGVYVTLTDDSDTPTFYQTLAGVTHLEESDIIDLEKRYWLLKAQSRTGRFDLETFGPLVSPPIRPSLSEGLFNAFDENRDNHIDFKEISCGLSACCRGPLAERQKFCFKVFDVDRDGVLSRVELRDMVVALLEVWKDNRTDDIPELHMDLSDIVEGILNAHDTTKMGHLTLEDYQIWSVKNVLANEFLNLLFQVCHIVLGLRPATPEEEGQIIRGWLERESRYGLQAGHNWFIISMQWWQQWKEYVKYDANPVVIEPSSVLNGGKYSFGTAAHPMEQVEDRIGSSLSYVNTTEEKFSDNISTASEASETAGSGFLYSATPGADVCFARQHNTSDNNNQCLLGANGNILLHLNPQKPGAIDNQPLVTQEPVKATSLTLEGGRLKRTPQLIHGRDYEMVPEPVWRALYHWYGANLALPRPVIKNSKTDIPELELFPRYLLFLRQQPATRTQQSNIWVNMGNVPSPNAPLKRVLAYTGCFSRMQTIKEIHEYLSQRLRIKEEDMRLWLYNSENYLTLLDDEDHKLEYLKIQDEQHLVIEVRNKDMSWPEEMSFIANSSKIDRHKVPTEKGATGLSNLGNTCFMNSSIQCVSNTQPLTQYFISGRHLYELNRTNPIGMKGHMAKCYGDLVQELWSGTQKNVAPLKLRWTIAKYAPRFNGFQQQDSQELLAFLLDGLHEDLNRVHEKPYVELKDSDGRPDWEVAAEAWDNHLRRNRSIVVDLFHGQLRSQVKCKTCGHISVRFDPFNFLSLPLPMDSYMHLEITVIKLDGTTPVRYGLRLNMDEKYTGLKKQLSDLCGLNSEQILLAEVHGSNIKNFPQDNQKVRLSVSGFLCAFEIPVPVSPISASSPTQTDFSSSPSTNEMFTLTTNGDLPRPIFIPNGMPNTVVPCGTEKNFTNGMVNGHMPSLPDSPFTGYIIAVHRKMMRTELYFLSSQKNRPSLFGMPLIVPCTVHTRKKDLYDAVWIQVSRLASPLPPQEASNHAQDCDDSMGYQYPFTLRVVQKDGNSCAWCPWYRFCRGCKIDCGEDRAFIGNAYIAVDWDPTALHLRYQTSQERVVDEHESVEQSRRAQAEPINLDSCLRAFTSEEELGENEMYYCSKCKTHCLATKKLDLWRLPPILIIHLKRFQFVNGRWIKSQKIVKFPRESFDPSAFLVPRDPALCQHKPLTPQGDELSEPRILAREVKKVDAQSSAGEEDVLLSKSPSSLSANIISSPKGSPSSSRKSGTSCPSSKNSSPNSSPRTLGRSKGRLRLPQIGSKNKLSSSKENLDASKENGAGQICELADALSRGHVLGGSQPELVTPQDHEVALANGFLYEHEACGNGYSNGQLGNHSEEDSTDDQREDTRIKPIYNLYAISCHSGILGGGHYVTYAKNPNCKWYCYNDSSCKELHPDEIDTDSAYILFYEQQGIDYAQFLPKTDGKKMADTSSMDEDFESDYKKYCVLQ

With `C[C@@H]1[C@H]2CCN(C(=O)c3ncc(-c4ccnc(C#N)c4)o3)[C@H]2CN1C#N` [MTX115325] the IC50 (USP32) was 120 µM, the “Percentage of ipsilateral vs contralateral TH+ neurons” value ([1]; 50 mg/kg BID oral, 10 weeks, vehicle 61.7%, p 0.029) was 89.08% and the “Percentage of ipsilateral vs contralateral TH+ neurons in SNpc” value ([1]; AAV-A53T-SNCA mice, individual animals) was 43.6893 and 97.2222 and 27.4336 and 125.243 and 125 and 105.063 and 101.25 and 55.1724 and 95.8333 and 93.9394 and 113.861 and 96.0526 and 68.5315 and 98.8095. The “Beneficial effects at lower doses in a subsequent study” value ([1]; lower doses, doses not given, peer review reply) was “not show beneficial effects”, the IC50 (Trabid) was > 300 µM and the IC50 (VCPIP FL) was > 300 µM. The IC50 (USP13) was > 300 µM, the IC50 (OTUD6A) was > 300 µM and the IC50 (USP8) was > 300 µM. The IC50 (USP6) was 96.3 µM, the IC50 (UchL5) was > 300 µM and the IC50 (USP24) was > 300 µM. For the same compound, the IC50 (SENP6) was > 300 µM, the bioavailability ([2]; 10 mg/kg oral gavage vs 2 mg/kg IV) was 98% and the clearance ([2]; IV 2 mg/kg) was 19.7 mL/min/kg. For the same compound, the “Total GFAP stained area” value ([3]; 50 mg/kg, SNpc) was “significantly decreased”, the “Figure S7b immunostaining quantification, Left” value ([3]; AAV-A53T + MTX115325 (50 mg/kg), Group 5, Left hemisphere, individual animal values (Animal ID in r3)) was 1.3107 and 1.822 and 1.54 and 1.4872 and 0.5058 and 0.5702 and 1.26 and 0.5434 and 3.27 and 0.3697 and 0.5693 and 0.3721 and 1.3682 and the “Figure S7b immunostaining quantification, Right” value ([3]; AAV-A53T + MTX115325 (50 mg/kg), Group 5, Right hemisphere, individual animal values (Animal ID in r3)) was 5.052 and 9.289 and 2.625 and 1.026 and 0.413 and 0.7794 and 1.305 and 0.7197 and 2.306 and 0.4784 and 1.89 and 0.7362 and 2.027. The “Figure S7a immunostaining, Left” value ([3]; Group 5: AAV-A53T + MTX115325 (50 mg/kg), Left side, individual animals) was 7.176 and 11.087 and 12.7517 and 7.21 and 7.515 and 4.054 and 9.929 and 4.978 and 8.49 and 4.199 and 4.24 and 6.399 and 9.051, the “Figure S7a immunostaining, Right” value ([3]; Group 5: AAV-A53T + MTX115325 (50 mg/kg), Right side, individual animals) was 24.0437 and 23.3177 and 16.4732 and 6.609 and 8.915 and 4.627 and 11.7034 and 7.051 and 10.4594 and 5.626 and 7.142 and 6.872 and 11.3579 and the IC50 (USP35) was > 300 µM. The IC50 (CYLD) was > 300 µM, the IC50 (OTUB2) was > 300 µM and the TOM20-ubiquitylation ([4]; control background, 24 h, 1 µM) was “increased TOM20-ubiquitylation”. The TOM20-ubiquitylation ([4]; control neurons, 7 days at 10 nM, 100 nM or 1 µM) was “caused the upregulation of TOM20-ubiquitylation”, the IC50 (mouse USP30) was 0.013 µM and the IC50 (MINDY2) was > 300 µM. For the same compound, the IC50 (USP20) was > 300 µM, the IC50 (USPL1) was > 300 µM and the IC50 (USP9x) was > 300 µM. For the same compound, the IC50 (ATXN3L) was 173 µM.
